Measured values as given in patent US20220324835A1 (Nurix Therapeutics, Inc., priority 2018, published 2022).

Legend:
[1] = tested on: T-cell; assay: CD25 cell surface staining on T-cells co-stimulated with anti-CD3 and anti-CD28 antibody (Biological Example 2); assay type: cell-based, human; details: Homo sapiens, T-cell, fold change over baseline (anti-CD3/anti-CD28 stimulated T-cells without inhibitor), read-out: CD25 staining Anti-CD3/Anti-CD28 stimulation; for fold induction at 0.3 µM: 0.3 μM Cbl-b inhibitor; for fold induction at 1 µM: 1 μM Cbl-b inhibitor
Summary of the method: (§1)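 T-cells were stimulated with anti-CD3 antibody alone or with anti-CD28 antibody, in the presence or absence of Cbl-b inhibitor. IL-2 secretion or CD25 surface staining was measured, and values expressed as fold over the uninhibited baseline […].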

[2] = tested on: T-cell; assay: IL-2 secretion from T-cells co-stimulated with anti-CD3 and anti-CD28 antibody (Biological Example 2); assay type: cell-based, human; details: Homo sapiens, T-cell, fold change over baseline (anti-CD3/anti-CD28 stimulated T-cells without inhibitor), read-out: IL-2 secretion Anti-CD3/Anti-CD28 stimulation; for fold induction at 0.3 µM: 0.3 μM Cbl-b inhibitor; for fold induction at 1 µM: 1 μM Cbl-b inhibitor
Summary of the method: as §1

[3] = target: T1, Cbl-b (Homo sapiens, UniProt Q13191); assay: Cbl-b activity assay (Cbl-b inhibition assay), TR-FRET of Cbl-b interaction with UbcH5B-Ub; assay type: biochemical; details: assay buffer with 100 mM NaCl, 60 nM Src kinase; read-out: Cbl-b activity IC50
T1 sequence (Q13191 36-427): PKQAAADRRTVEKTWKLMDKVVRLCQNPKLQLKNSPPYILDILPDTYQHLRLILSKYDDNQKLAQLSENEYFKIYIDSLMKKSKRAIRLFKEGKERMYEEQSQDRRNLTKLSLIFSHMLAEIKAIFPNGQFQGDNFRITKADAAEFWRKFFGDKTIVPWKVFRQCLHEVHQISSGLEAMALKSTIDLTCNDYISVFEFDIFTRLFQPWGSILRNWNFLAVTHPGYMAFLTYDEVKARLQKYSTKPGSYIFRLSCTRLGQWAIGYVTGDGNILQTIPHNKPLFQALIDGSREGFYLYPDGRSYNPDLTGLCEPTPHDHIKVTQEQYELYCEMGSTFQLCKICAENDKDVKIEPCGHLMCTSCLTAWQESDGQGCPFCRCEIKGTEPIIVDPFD
Summary of the method: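 UbcH5B (C85K) conjugated to N-terminally Bodipy-Fluorescein-labeled ubiquitin served as the fluorescent partner. After compound preincubation, Src kinase (60 nM) with 1 mM ATP and 5 mM MgCl2 (final) was added for 1.5 h, followed by a further 1 h incubation. Some values were obtained with 50 mM NaCl and 30 nM Src.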

[4] = tested on: T-cell; assay: CD25 cell surface staining on T-cells stimulated with anti-CD3 antibody alone (Biological Example 2); assay type: cell-based, human; details: Homo sapiens, T-cell; 1 μM Cbl-b inhibitor; fold change over baseline (anti-CD3/anti-CD28 stimulated T-cells without inhibitor); read-out: CD25 staining Anti-CD3 stimulation
[5] = target: T1, Cbl-b; assay: Cbl-b inhibition assay (Cbl-b activity assay, FRET, Biological Example 1; 100 mM NaCl, 60 nM Src kinase); assay type: biochemical; details: upper bound stated in text lists; read-out: IC50 values in the Cbl-b inhibition assay of Biological Example 1
Summary of the method: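 Binding-based Cbl-b activity assay. Src-phosphorylated, N-terminally biotin-Avi-tagged Cbl-b recruits labelled UbcH5B-Ub, and proximity to streptavidin-terbium yields FRET.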

[6] = tested on: T-cell; assay: IL-2 secretion from T-cells stimulated with anti-CD3 antibody alone (Biological Example 2); assay type: cell-based, human; details: Homo sapiens, T-cell; 1 μM Cbl-b inhibitor; fold change over baseline (anti-CD3/anti-CD28 stimulated T-cells without inhibitor); read-out: IL-2 secretion Anti-CD3 stimulation

SMILES | fold induction at 0.3 µM [1] | fold induction at 1 µM [1] | fold induction at 0.3 µM [2] | fold induction at 1 µM [2] | IC50 [3] [nM] | fold induction at 1 µM [4] | IC50 [5] [nM] | fold induction at 1 µM [6]
CN1CC2CC(C1)N2c1cc(C(=O)Nc2cccc(C3(Cc4nncn4C)COC3)c2)nc(C2CC2)n1 [Example 572, 2-Cyclopropyl-N-(3-(3-((4-methyl-4H-1,2,4-triazol-3-yl)methyl)oxetan-3-yl)phenyl)-6-(3-methyl-3,6-diazabicyclo[3.1.1]heptan-6-yl)pyrimidine-4-carboxamide] | 1.31 to 1.5 | 1.31 to 1.5 | > 7.5 | > 7.5 | < 100 | > 1 | ≤ 100 | > 0.201
CN1C[C@H]2CC[C@@H](C1)N2c1cc(C(=O)Nc2cccc(C3(Cc4nncn4C)COC3)c2)nc(C2CC2)n1 [Example 573, 2-Cyclopropyl-N-(3-(3-((4-methyl-4H-1,2,4-triazol-3-yl)methyl)oxetan-3-yl)phenyl)-6-((1R,5S)-3-methyl-3,8-diazabicyclo[3.2.1]octan-8-yl)pyrimidine-4-carboxamide] | 1.31 to 1.5 | 1.51 to 1.75 | 5 to 7.5 | > 7.5 | < 100 | > 1 | ≤ 100 | > 0.201
Cn1cnnc1CC1(c2cccc(NC(=O)c3cc(CN4CC[C@H](F)C4)nc(C4CC4)n3)c2)COC1 [Example 574, (S)-2-Cyclopropyl-6-((3-fluoropyrrolidin-1-yl)methyl)-N-(3-(3-((4-methyl-4H-1,2,4-triazol-3-yl)methyl)oxetan-3-yl)phenyl)pyrimidine-4-carboxamide] | 1.51 to 1.75 | 1.51 to 1.75 | > 7.5 | > 7.5 | < 100 | > 1 | ≤ 100 | > 0.201
Cn1cnnc1CC1(c2cccc(N3Cc4c(ccc(F)c4C4CC4)C3=O)c2)COC1 [Example 577, 4-Cyclopropyl-5-fluoro-2-(3-(3-((4-methyl-4H-1,2,4-triazol-3-yl)methyl)oxetan-3-yl)phenyl)isoindolin-1-one] | 1.01 to 1.3 | 1.01 to 1.3 | 1.01 to 2.5 | 1.01 to 2.5 | 100 to 300 | 0.601 to 0.8 | ≤ 300 | 0.051 to 0.1
Cn1cnnc1CC1(c2cccc(N3Cc4c(cc(CN5CC[C@H](F)C5)nc4C4CC4)C3=O)c2)COC1 [Example 578, (S)-4-cyclopropyl-6-((3-fluoropyrrolidin-1-yl)methyl)-2-(3-(3-((4-methyl-4H-1,2,4-triazol-3-yl)methyl)oxetan-3-yl)phenyl)-2,3-dihydro-1H-pyrrolo[3,4-c]pyridin-1-one] | 1.01 to 1.3 | 1.01 to 1.3 | 2.51 to 5 | 5 to 7.5 | < 100 | 0.801 to 1 | ≤ 100 | 0.051 to 0.1
Cn1cnnc1CC1(c2cccc(N3Cc4c(cc(CN5CCCC5)nc4C4CC4)C3=O)c2)COC1 [Example 579, 4-Cyclopropyl-2-(3-(3-((4-methyl-4H-1,2,4-triazol-3-yl)methyl)oxetan-3-yl)phenyl)-6-(pyrrolidin-1-ylmethyl)-2,3-dihydro-1H-pyrrolo[3,4-c]pyridin-1-one] | 1.01 to 1.3 | 1.01 to 1.3 | 1.01 to 2.5 | 2.51 to 5 | < 100 | < 0.6 | ≤ 100 | < 0.05
Cn1cnnc1CC1(c2cccc(N3Cc4c(cc(C(N5CCCC5)C(F)(F)F)cc4C(F)(F)F)C3=O)c2)COC1 (stereo not shown) [Example 581, 2-(3-(3-((4-Methyl-4H-1,2,4-triazol-3-yl)methyl)oxetan-3-yl)phenyl)-6-(2,2,2-trifluoro-1-(pyrrolidin-1-yl)ethyl)-4-(trifluoromethyl)isoindolin-1-one] | 1.01 to 1.3 | 1.31 to 1.5 | 1.01 to 2.5 | 2.51 to 5 | < 100 | 0.801 to 1 | ≤ 100 | 0.051 to 0.1
Cn1cnnc1CC1(c2cccc(N3Cc4c(cc(N5CCNC6(CC6)C5)cc4C(F)(F)F)C3=O)c2)COC1 [Example 582, 2-(3-(3-((4-Methyl-4H-1,2,4-triazol-3-yl)methyl)oxetan-3-yl)phenyl)-6-(4,7-diazaspiro[2.5]octan-7-yl)-4-(trifluoromethyl)isoindolin-1-one] | 1.31 to 1.5 | 1.31 to 1.5 | > 7.5 | > 7.5 | < 100 | > 1 | ≤ 100 | 0.101 to 0.15
CN1CCN(c2cc3c(c(C(F)(F)F)c2)CN(c2cccc(C4(Cc5nncn5C)COC4)c2)C3=O)CC12CC2 [Example 583, 2-(3-(3-((4-Methyl-4H-1,2,4-triazol-3-yl)methyl)oxetan-3-yl)phenyl)-6-(4-methyl-4,7-diazaspiro[2.5]octan-7-yl)-4-(trifluoromethyl)isoindolin-1-one] | 1.31 to 1.5 | 1.51 to 1.75 | 2.51 to 5 | 5 to 7.5 | < 100 | > 1 | ≤ 100 | 0.151 to 0.2
CC(c1cc2c(c(C3CC3)n1)CN(c1cccc(C3(Cc4nncn4C)COC3)c1)C2=O)N1CCCC1 (stereo not drawn) [Example 584, 4-Cyclopropyl-2-(3-(3-((4-methyl-4H-1,2,4-triazol-3-yl)methyl)oxetan-3-yl)phenyl)-6-(l-(pyrrolidin-1-yl)ethyl)-2,3-dihydro-1H-pyrrolo[3,4-c]pyridin-1-one] | 1.01 to 1.3 | 1.01 to 1.3 | 1.01 to 2.5 | 2.51 to 5 | < 100 | 0.601 to 0.8 | ≤ 100 | < 0.05
CC(c1cc2c(c(C3CC3)n1)CN(c1cccc(C3(Cc4nncn4C)COC3)c1)C2=O)N1CCC2(CC2)C1 (stereo not shown) [Example 585, 6-(1-(5-Azaspiro[2.4]heptan-5-yl)ethyl)-4-cyclopropyl-2-(3-(3-((4-methyl-4H-1,2,4-triazol-3-yl)methyl)oxetan-3-yl)phenyl)-2,3-dihydro-1H-pyrrolo[3,4-c]pyridin-1-one] | 1.01 to 1.3 | 1.01 to 1.3 | 2.51 to 5 | 5 to 7.5 | < 100 | 0.801 to 1 | ≤ 100 | 0.051 to 0.1
CC(c1cc2c(c(C3CC3)n1)CN(c1cccc(C3(Cc4nncn4C)COC3)c1)C2=O)N1CC2(CC2)C1 (stereo not shown) [Example 586, 6-(1-(5-Azaspiro[2.3]hexan-5-yl)ethyl)-4-cyclopropyl-2-(3-(3-((4-methyl-4H-1,2,4-triazol-3-yl)methyl)oxetan-3-yl)phenyl)-2,3-dihydro-1H-pyrrolo[3,4-c]pyridin-1-one] | 1.01 to 1.3 | 1.01 to 1.3 | 1.01 to 2.5 | 2.51 to 5 | < 100 | 0.601 to 0.8 | ≤ 100 | < 0.05
CC(c1cc2c(c(C3CC3)n1)CN(c1cccc(C3(Cc4nncn4C)COC3)c1)C2=O)N1CCCCC1 (stereo not drawn) [Example 587, 4-Cyclopropyl-2-(3-(3-((4-methyl-4H-1,2,4-triazol-3-yl)methyl)oxetan-3-yl)phenyl)-6-(l-(piperidin-1-yl)ethyl)-2,3-dihydro-1H-pyrrolo[3,4-c]pyridin-1-one] | > 1.76 | > 1.76 | 5 to 7.5 | > 7.5 | < 100 | 0.601 to 0.8 | ≤ 100 | > 0.201
CC1C(C(F)(F)F)CCN1Cc1cc2c(c(C(F)(F)F)c1)CN(c1cccc(C3(Cc4nncn4C)COC3)c1)C2=O (stereo not shown) [Example 588, 6-((2-Methyl-3-(trifluoromethyl)pyrrolidin-1-yl)methyl)-2-(3-(3-((4-methyl-4H-1,2,4-triazol-3-yl)methyl)oxetan-3-yl)phenyl)-4-(trifluoromethyl)isoindolin-1-one] | 1.01 to 1.3 | 1.31 to 1.5 | 5 to 7.5 | > 7.5 | < 100 | > 1 | ≤ 100 | 0.051 to 0.1
